Results on seven molecules are retold here after patent US12358879B2, “Heterocyclic compound” (Takeda Pharmaceutical Company Limited, priority 2019, dated 2025).

Each structure is given as a SMILES string.

The assay concerns Skin fibroblasts derived from FA patients (GM4078). The assay can be described thus: RSL3-induced cell death inhibitory activity in skin fibroblasts derived from FA patients (ATP, CellTiter-Glo). The class given is cell-based, human. As to conditions: 3 μmol/l RSL3, 24 hours. The protocol:
The effects of the compounds according to the present disclosure were evaluated according to the literature (M. G. Cotticelli et al, J Pharmacol Exp Ther 2019, 369, 47-54.).
Skin fibroblasts derived from FA patients (Coriell Institute for Medical Research, GM4078) were cultured in a culture medium consisting of DMEM (Thermo Fisher Scientific, 11995-065), 10% fetal bovine serum (Thermo Fisher Scientific, 26140-087), 1% GlutaMAX supplement (Thermo Fisher Scientific, 35050-061) and 1% Penicillin-Streptomycin solution (FUJIFILM Wako Pure Chemical Corporation, 168-23191).
For assay, the fibroblasts in the above culture medium were seeded in a 384-well plate at 1,500 cells per well, and the test compound and 3 μmol/l (final concentration) RSL3 were added to the plate the day after seeding. The concentration of the test compound added to the assay plate was 0.01, 0.1, 1 and 10 μmol/l as 4 points, and DMSO was added as a negative control for the test compound and RSL3. Twenty-four hours after the addition of RSL3/the test compound, CellTiter-Glo Luminescent Cell Viability Assay solution (Promega, G7573) was added to the plate to lyse the cells, and ATP was measured as an index of cell viability by detecting chemiluminescence with a plate reader.
RSL3-induced cell death inhibitory activity of the test compound=((X−C)/(T−C))×100 • X: ATP in the RSL3 addition/the test compound addition group, • C: ATP in the RSL3 addition/the test compound non-addition group, • T: ATP in the RSL3 non-addition/the test compound non-addition group

With `COc1cc(-c2cnn(C)c2)ccc1Nc1n[nH]c2cc(C(C)(C)O)ccc12` [Example 12, 2-{3-[2-methoxy-4-(1-methyl-1H-pyrazol-4-yl)anilino]-1H-indazol-6-yl}propan-2-ol], the “RSL3-induced cell death inhibitory activity (%) at each compound concentration (μmol/l)” value runs as follows: (compound 0.01 μmol/l) 33.2%; (compound 0.1 μmol/l) 57.8%; (compound 1 μmol/l) 79.9%; (compound 10 μmol/l) 85.9%.
For `Cn1nc(NC2CCCCC2)c2cc(C(C)(C)O)ccc21` [Example 59, 2-[3-(cyclohexylamino)-1-methyl-1H-indazol-5-yl]propan-2-ol] the same measures were 48.0%, 65.9%, 93.3% and 95.9%.
For `COc1c(Nc2nn(C)c3cc(C(C)(C)O)cc(F)c23)cnn1CC(C)C` [Example 44, 2-(4-fluoro-3-{[5-methoxy-1-(2-methylpropyl)-1H-pyrazol-4-yl]amino}-1-methyl-1H-indazol-6-yl)propan-2-ol] the same measures were 38.3%, 61.3%, 78.4% and 95.0%.
For the molecule `Cn1nc(Nc2cccc3c2OCC3)c2ccc(C(C)(C)O)cc21` [Example 2, 2-{3-[(2,3-dihydro-1-benzofuran-7-yl)amino]-1-methyl-1H-indazol-6-yl}propan-2-ol], the “RSL3-induced cell death inhibitory activity (%) at each compound concentration (μmol/l)” value reads like this: (compound 0.01 μmol/l) 4.7%; (compound 0.1 μmol/l) 71.7%; (compound 1 μmol/l) 95.4%; (compound 10 μmol/l) 83.5%.
For `Cn1nc(Nc2cnn3c2OCCC3)c2cc(F)c(C(C)(C)O)cc21` [Example 56, 2-{3-[(6,7-dihydro-5H-pyrazolo[5,1-b][1,3]oxazin-3-yl)amino]-5-fluoro-1-methyl-1H-indazol-6-yl}propan-2-ol] the same measures were 47.4%, 69.3%, 94.2% and 90.3%.
On to `Cn1ncc(Nc2nn(C)c3cc(C(C)(C)O)ccc23)c1C(F)(F)F` [Example 9, 2-(1-methyl-3-{[1-methyl-5-(trifluoromethyl)-1H-pyrazol-4-yl]amino}-1H-indazol-6-yl)propan-2-ol], for which the “RSL3-induced cell death inhibitory activity (%) at each compound concentration (μmol/l)” value (compound 0.01 μmol/l) is reported as 30.0%, the “RSL3-induced cell death inhibitory activity (%) at each compound concentration (μmol/l)” value (compound 0.1 μmol/l) came to 61.8%, the “RSL3-induced cell death inhibitory activity (%) at each compound concentration (μmol/l)” value (compound 1 μmol/l) came out at 96.1% and the “RSL3-induced cell death inhibitory activity (%) at each compound concentration (μmol/l)” value (compound 10 μmol/l) is 84.6%.
In the same order, the values of `COc1nn(C)cc1Nc1nn(C(C)C)c2cc(C(C)(C)O)ccc12` [Example 39, 2-{3-[(3-methoxy-1-methyl-1H-pyrazol-4-yl)amino]-1-(propan-2-yl)-1H-indazol-6-yl}propan-2-ol] are 58.0%, 66.4%, 83.0% and 93.2%.
